According to the NIST ThermoML archive (doi:10.1021/acs.jced.5b00451):

Assay: mn = molality of the nth substance listed, in mol/kg
Details: 101.33 kPa, Liquid, Vibrating tube method

CCCCCCCCCCCCCCCC[N+](C)(C)C.[Br-] [N,N,N-trimethyl-1-hexadecanaminium bromide] + O
mass density [kg/m3]
Details | 293.15 K | 298.15 K | 303.15 K
m1 = 0.00082 | 998.23 | 997.052 | 995.673
m1 = 0.00093 | 998.234 | 997.055 | 995.669
m1 = 0.00104 | 998.238 | 997.058 | 995.669
m1 = 0.00205 | 998.239 | 997.06 | 995.666
m1 = 0.00309 | 998.245 | 997.062 | 995.67
m1 = 0.00411 | 998.243 | 997.065 | 995.678
m1 = 0.00625 | 998.254 | 997.073 | 995.681
m1 = 0.00726 | 998.258 | 997.076 | 995.678
m1 = 0.00801 | 998.255 | 997.076 | 995.687
m1 = 0.00931 | 998.264 | 997.078 | 995.679
m1 = 0.01038 | 998.274 | 997.082 | 995.679
m1 = 0.01139 | 998.276 | 997.089 | 995.693
m1 = 0.01252 | 998.279 | 997.093 | 995.676
m1 = 0.01454 | 998.293 | 997.098 | 995.699
m1 = 0.01561 | 998.296 | 997.105 | 995.676

CCCCCC[N+](C)(C)C.[Br-] [hexyltrimethylammonium bromide] + O
mass density [kg/m3]
Details | 293.15 K | 298.15 K | 303.15 K
m1 = 0.04932 | 999.719 | 998.528 | 997.065
m1 = 0.07746 | 1000.55 | 999.34 | 997.873
m1 = 0.08812 | 1000.88 | 999.654 | 998.174
m1 = 0.1186 | 1001.76 | 1000.52 | 999.049
m1 = 0.1774 | 1003.49 | 1002.19 | 1000.78
m1 = 0.1855 | 1003.72 | 1002.41 | 1000.97
m1 = 0.2757 | 1006.26 | 1004.93 | 1003.53
m1 = 0.3712 | 1008.99 | 1007.66 | 1006.15
m1 = 0.4703 | 1011.8 | 1010.34 | 1008.8
m1 = 0.5274 | 1013.14 | 1011.76 | 1010.3
m1 = 0.5803 | 1014.75 | 1013.13 | 1011.67
m1 = 0.636 | 1016.19 | 1014.59 | 1013.12

CCCCCCCCCC[N+](C)(C)C.[Br-] [N,N,N-trimethyl-1-decanaminium bromide] + O
mass density [kg/m3]
Details | m1 = 0.01879 | m1 = 0.02836 | m1 = 0.04784 | m1 = 0.05741 | m1 = 0.06268 | m1 = 0.0767 | m1 = 0.08783 | m1 = 0.09727 | m1 = 0.1206 | m1 = 0.1383
293.15 K | 998.685 | 998.921 | 999.399 | 999.635 | 999.765 | 1000.05 | 1000.28 | 1000.47 | 1000.86 | 1001.23
298.15 K | 997.496 | 997.716 | 998.157 | 998.379 | 998.511 | 998.788 | 998.987 | 999.17 | 999.597 | 999.91
303.15 K | 996.082 | 996.312 | 996.748 | 996.949 | 997.055 | 997.334 | 997.534 | 997.707 | 998.105 | 998.375

CCCCCCCC[N+](C)(C)C.[Br-] [octyl trimethyl ammonium bromide] + O
mass density [kg/m3]
Details | m1 = 0.04535 | m1 = 0.09122 | m1 = 0.1223 | m1 = 0.1444 | m1 = 0.1759 | m1 = 0.1958 | m1 = 0.2338 | m1 = 0.2621 | m1 = 0.2773 | m1 = 0.3003
293.15 K | 999.46 | 1000.72 | 1001.54 | 1002.14 | 1002.97 | 1003.52 | 1004.58 | 1005.29 | 1005.65 | 1006.33
298.15 K | 998.261 | 999.486 | 1000.3 | 1000.84 | 1001.75 | 1002.13 | 1003.15 | 1003.84 | 1004.24 | 1004.76
303.15 K | 996.848 | 998.045 | 998.815 | 999.391 | 1000.2 | 1000.69 | 1001.63 | 1002.32 | 1002.69 | 1003.25

CCCCCCCCCCCCCC[N+](C)(C)C.[Br-] [tetradecyltrimethylammonium bromide] + O
mass density [kg/m3]
Details | 293.15 K | 298.15 K | 303.15 K
m1 = 0.00291 | 998.259 | 997.091 | 995.687
m1 = 0.00325 | 998.265 | 997.097 | 995.692
m1 = 0.00379 | 998.273 | 997.103 | 995.706
m1 = 0.00393 | 998.275 | 997.105 | 995.704
m1 = 0.0049 | 998.286 | 997.115 | 995.708
m1 = 0.0065 | 998.302 | 997.127 | 995.727
m1 = 0.00821 | 998.32 | 997.144 | 995.739
m1 = 0.01087 | 998.344 | 997.164 | 995.749
m1 = 0.04969 | 998.72 | 997.499 | 996.055
m1 = 0.09742 | 999.176 | 997.906 | 996.41
m1 = 0.1468 | 999.632 | 998.322 | 996.79
m1 = 0.1955 | 1000.08 | 998.719 | 997.144
m1 = 0.3023 | 1001 | 999.537 | 997.713

CCCCCCCCCCCC[N+](C)(C)C.[Br-] [dodecyltrimethylammonium bromide] + O
mass density [kg/m3]
Details | 293.15 K | 298.15 K | 303.15 K
m1 = 0.00799 | 998.38 | 997.201 | 995.799
m1 = 0.00998 | 998.422 | 997.244 | 995.839
m1 = 0.01168 | 998.455 | 997.278 | 995.868
m1 = 0.01448 | 998.514 | 997.332 | 995.921
m1 = 0.01695 | 998.566 | 997.376 | 995.96
m1 = 0.01883 | 998.601 | 997.406 | 995.987
m1 = 0.02825 | 998.739 | 997.528 | 996.106
m1 = 0.04703 | 998.998 | 997.783 | 996.34
m1 = 0.09497 | 999.663 | 998.401 | 996.928
m1 = 0.1963 | 1001.05 | 999.701 | 998.119
m1 = 0.301 | 1002.39 | 1000.96 | 999.316
